Test results published in patent US20250186448A1 (Mezzion Pharma Co., Ltd., priority 2021, published 2025).
Values joined by “and” are separate entries in the source; they are usually repeats but may differ in a detail not shown here. Identical values can stand only once. “Also recorded” adds a separate entry of the source.

Tested on: adolescents with Fontan physiology
Assay: FUEL trial: resting data and cardiopulmonary exercise test (CPET), cycle ergometer ramp protocol
Type: in vivo, human
Settings: for Anaerobic threshold VE/VCO2 / Anaerobic threshold oxygen consumption / Anaerobic threshold work / Peak exercise heart rate / Peak exercise minute ventilation / Peak exercise oxygen consumption / Peak exercise oxygen saturation / Peak exercise respiratory rate / Peak exercise work rate / Resting diastolic blood pressure / Resting heart rate / Resting oxygen saturation / Resting systolic blood pressure: mean ± SD; for Resting oxygen saturation, change: p 0.002 vs placebo; for Resting diastolic blood pressure, change: p 0.003 vs placebo; for Anaerobic threshold VE/VCO2, change: p 0.011 vs placebo
Source text: Exercise testing can include assessment of VO2 values during maximal effort or at the ventilator anaerobic threshold (VAT). VO2 max, or maximal oxygen consumption, refers to the maximum amount of oxygen that an individual can utilize during intense exercise. This measurement is generally considered a reliable indicator of cardiovascular fitness and aerobic endurance. The more oxygen a person can use during high level exercise, the more energy that person can produce. This test has been the standard for cardiorespiratory fitness because muscles need oxygen for prolonged (aerobic) exercise; blood carries oxygen to the muscles and the heart must pump adequate amounts of blood to meet the demands of aerobic exercise.
VO2 is often measured by putting a mask on a subject, and measuring the volume and gas concentrations of inhaled and expired air. This measurement is often used in both clinical settings and research and is considered the most accurate. Testing commonly involves either exercising on a treadmill or riding a cycle ergometer at increasing intensity until exhaustion, and is designed to provide readings at a maximal effort of the subject and/or at the subject's anaerobic threshold.
Exercise testing can include assessment of VO2 values during maximal effort or at ventilator anaerobic threshold (“VAT”). VO2 max (“peak VO2”), or maximal (“peak”) oxygen consumption, refers to the maximum amount of oxygen that an individual can utilize during intense exercise. This measurement is generally considered a reliable indicator of cardiovascular fitness and aerobic endurance. Theoretically, the more oxygen a person can use during exercise, the more energy that person can produce. This test is often used for cardiorespiratory fitness because muscles need oxygen for prolonged (aerobic) exercise; blood carries oxygen to the muscles and the heart must pump adequate amounts of blood to meet the demands of aerobic exercise. However, while peak VO2 may be useful as a surrogate for many cardiovascular disease states, it may not be as relevant an endpoint after the Fontan operation. In this unique physiology, central venous pressure, rather than right ventricular contraction (pumping), is the primary driver of transpulmonary blood flow and, therefore, cardiac output. Gewillig M and Goldberg D J. Failure of the fontan circulation. Heart Fail Clin. 10(1):105-116 (January 2014); Egbe A C, Connolly H M, Miranda W R, Ammash N M, Hagler D J, Veldtman G R and Borlaug B A. Hemodynamics of Fontan Failure: The Role of Pulmonary Vascular Disease. Circ Heart Fail. 10(12): e004515 (September 2017); Gewillig M, Brown S C, Eyskens B, Heying R, Ganame J, Budts W, La Gerche A and Gorenflo M. The Fontan circulation: who controls cardiac output?Interact Cardiovasc Thorac Surg. 10(3):428-433 (March 2010); and Goldberg D J, Avitabile C M, McBride M G and Paridon S M. Exercise capacity in the Fontan circulation. Cardiol Young. 23(6):824-830 (December 2013). As the demand for cardiac output increases with exertion, central venous pressure in the Fontan circulation must rise to meet that demand, but eventually reaches a critical ceiling beyond which it can rise no further. Navaratnam D, Fitzsimmons S, Grocott M, Rossiter H B, Emmanuel Y, Diller G P, Gordon-Walker T, Jack S, Sheron N, Pappachan J, Pratap J N, Vettukattil J J and Veldtman G. Exercise-Induced Systemic Venous Hypertension in the Fontan Circulation. Am J Cardiol. 117(10):1667-1671 (May 15, 2016).
VO2 is often measured by putting a mask on a subject, and measuring the volume and gas concentrations of inhaled and expired air. This measurement is often used in both clinical settings and research and has been considered the most accurate. Testing commonly involves either exercising on a treadmill or riding a cycle ergometer at increasing intensity until exhaustion, and is designed to provide readings at a maximal effort of the subject and/or at the subject's anaerobic threshold. […]

[1] = 87.5 mg twice daily, Change baseline to 26-week
[2] = 87.5 mg twice daily, Change baseline to 26-week, listed as udenafil
[3] = 87.5 mg twice daily, baseline to 26-week

CCCOc1ccc(S(=O)(=O)NCCC2CCCN2C)cc1-c1nc2c(CCC)nn(C)c2c(=O)[nH]1 (stereo not drawn) [Udenafil, udenafil]
Multiple measures of exercise performance at the ventilatory anaerobic threshold, udenafil vs placebo (87.5 mg twice daily): statistically significant improvements
Anaerobic threshold VE/VCO2 (87.5 mg twice daily, 26-week): 33.6 ± 4.8
Anaerobic threshold oxygen consumption (87.5 mg twice daily, 26-week): 1059 ± 292 mL/min
Anaerobic threshold work (87.5 mg twice daily, 26-week): 69.2 ± 26 W
Peak exercise heart rate (87.5 mg twice daily, 26-week): 165 ± 20 bpm
Peak exercise minute ventilation (87.5 mg twice daily, 26-week): 73 ± 22 L/min
Peak exercise oxygen consumption (87.5 mg twice daily, 26-week): 1606 ± 452 mL/min
Peak exercise oxygen saturation (87.5 mg twice daily, 26-week): 89.6 ± 4.9%
Peak exercise respiratory rate (87.5 mg twice daily, 26-week): 50 ± 12 breaths/min
Peak exercise work rate (87.5 mg twice daily, 26-week): 124 ± 32 W
Resting diastolic blood pressure (87.5 mg twice daily, 26-week): 65.3 ± 9.9 mmHg
Resting heart rate (87.5 mg twice daily, 26-week): 86.6 ± 15.4 bpm
Resting oxygen saturation (87.5 mg twice daily, 26-week): 93.3 ± 3.5%
Resting systolic blood pressure (87.5 mg twice daily, 26-week): 110.5 ± 12.0 mmHg
Anaerobic threshold VE/VCO2 (87.5 mg twice daily, Baseline): 34.3 ± 4.9
Anaerobic threshold oxygen consumption (87.5 mg twice daily, Baseline): 1039 ± 301 mL/min
Anaerobic threshold work (87.5 mg twice daily, Baseline): 66.2 ± 26 W
Peak exercise heart rate (87.5 mg twice daily, Baseline): 165 ± 20 bpm
Peak exercise minute ventilation (87.5 mg twice daily, Baseline): 71 ± 21 L/min
Peak exercise oxygen consumption (87.5 mg twice daily, Baseline): 1562 ± 437 mL/min
Peak exercise oxygen saturation (87.5 mg twice daily, Baseline): 89.2 ± 5.3%
Peak exercise respiratory rate (87.5 mg twice daily, Baseline): 51 ± 11 breaths/min
Peak exercise work rate (87.5 mg twice daily, Baseline): 120 ± 32 W
Resting diastolic blood pressure (87.5 mg twice daily, Baseline): 68.4 ± 9.5 mmHg
Resting heart rate (87.5 mg twice daily, Baseline): 87.5 ± 15.3 bpm
Resting oxygen saturation (87.5 mg twice daily, Baseline): 92.8 ± 3.9%
Resting systolic blood pressure (87.5 mg twice daily, Baseline): 112.3 ± 12.1 mmHg
Resting oxygen saturation, change [1]: 0.5 ± 2.4%
Resting oxygen saturation, change [2]: +0.5%
Resting diastolic blood pressure, change [1]: −2.9 ± 9.7 mmHg
Resting diastolic blood pressure, change [2]: −2.9 mmHg
Anaerobic threshold VE/VCO2, change [1]: −0.76 ± 3.6^
Anaerobic threshold VE/VCO2, change [2]: −0.8
Anaerobic threshold oxygen consumption (VO2 at VAT), change (87.5 mg twice daily, Change baseline to 26-week, p 0.023 vs placebo): 29.7 ± 177 mL/min
Anaerobic threshold work (work rate at VAT), change (87.5 mg twice daily, Change baseline to 26-week, p 0.029 vs placebo): 3.5 ± 15 W
Peak exercise oxygen consumption (peak VO2, VO2 max), change (87.5 mg twice daily, Change baseline to 26-week, p 0.071 vs placebo): 44 ± 245 mL/min
Resting systolic blood pressure, change (87.5 mg twice daily, Change baseline to 26-week, p 0.18 vs placebo): −1.8 ± 12.2 mmHg
Resting heart rate, change (87.5 mg twice daily, Change baseline to 26-week, p 0.78 vs placebo): −0.9 ± 12.7 bpm
Peak exercise work rate, change (87.5 mg twice daily, Change baseline to 26-week, p 0.85 vs placebo): 3.2 ± 14 W
VE/VCO2 measured at VAT, decreased by, percent [3]: 2.1%
Work rate at VAT improved by, percent [3]: 5.5% and 5.2%
Change in resting heart rate, respiratory rate, or systolic blood pressure, udenafil vs placebo (baseline to 26-week): no difference
Diastolic blood pressure in the udenafil group, in words (baseline to 26-week): small but statistically significant decrease
Resting oxygen saturation in the udenafil group, in words (baseline to 26-week): small but statistically significant increase
Oxygen consumption at peak exercise (peak VO2), difference udenafil vs placebo (p=0.071): did not reach statistical significance; also recorded: not associated with a statistically significant improvement
